Experiment [1] concerns the target EGFR L858R/T790M/C797S (Homo sapiens, UniProt P00533, C797S/L858R/T790M). The experiment in a line: Biochemical EGFR kinase inhibition assay (Lance Ultra TR-FRET), triple mutant L858R/T790M/C797S. An outline of the steps:
(§1)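 In this biochemical assay, phosphorylation after a one-hour room-temperature reaction was detected with europium-labelled anti-phosphopeptide antibody at 2 nM final concentration.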
A general note: TR-FRET usually uses a lanthanide donor and a delayed reading to cut background.

In experiment [2] the target is EGFR Del19/T790M/C797S (Homo sapiens, UniProt P00533, C797S/DEL746-750/T790M). Put plainly: Biochemical EGFR kinase inhibition assay (Lance Ultra TR-FRET), triple mutant del19/T790M/C797S. An outline of the steps:
as §1

The target in experiment [3] is EGFR Del19/C797S (Homo sapiens, UniProt P00533, C797S/DEL746-750). Put plainly: Biochemical EGFR kinase inhibition assay (Lance Ultra TR-FRET), double mutant del19/C797S. An outline of the steps: as §1
Experiment [4] concerns the target EGFR L858R/C797S (Homo sapiens, UniProt P00533, C797S/L858R). Put plainly: Biochemical EGFR kinase inhibition assay (Lance Ultra TR-FRET), double mutant L858R/C797S. An outline of the steps: as §1
Experiment [5] deals with EGFR wildtype (WT) (Homo sapiens, UniProt P00533). Put plainly: Biochemical EGFR kinase inhibition assay (Lance Ultra TR-FRET), wildtype. An outline of the steps: as §1
The mark [6] stands for this setting: IC50 L858R/T790M/C797S (nM), 100 μM ATP.
Setting [7] is: IC50 Del19/T790M/C797S (nM), 100 μM ATP.
[8] abbreviates: ATP at Km, read-out: IC50 Del19/C797S (nM), Km ATP.
The mark [9] stands for this setting: IC50 Del19/C797S (nM), 100 μM ATP.
The mark [10] stands for this setting: ATP at Km, read-out: IC50 L858R/C797S (nM), Km ATP.
[11] abbreviates: IC50 L858R/C797S (nM), 100 μM ATP.
Where [12] appears, read: ATP at Km, read-out: IC50 WT (nM), Km ATP.
Setting [13] is: ATP at Km, read-out: IC50 L858R/T790M/C797S (nM), Km ATP.
The mark [14] stands for this setting: ATP at Km, read-out: IC50 Del19/T790M/C797S (nM), Km ATP.
The mark [15] stands for this setting: Km ATP, read-out: IC50 Del19/C797S (nM), Km ATP.
Where [16] appears, read: Km ATP, read-out: IC50 L858R/C797S (nM), Km ATP.
[17] abbreviates: Km ATP, read-out: IC50 WT (nM), Km ATP.

Where two headings read alike, the source gives them in different places.

Chain of EGFR L858R/C797S (P00533 25-1210 C797S/L858R): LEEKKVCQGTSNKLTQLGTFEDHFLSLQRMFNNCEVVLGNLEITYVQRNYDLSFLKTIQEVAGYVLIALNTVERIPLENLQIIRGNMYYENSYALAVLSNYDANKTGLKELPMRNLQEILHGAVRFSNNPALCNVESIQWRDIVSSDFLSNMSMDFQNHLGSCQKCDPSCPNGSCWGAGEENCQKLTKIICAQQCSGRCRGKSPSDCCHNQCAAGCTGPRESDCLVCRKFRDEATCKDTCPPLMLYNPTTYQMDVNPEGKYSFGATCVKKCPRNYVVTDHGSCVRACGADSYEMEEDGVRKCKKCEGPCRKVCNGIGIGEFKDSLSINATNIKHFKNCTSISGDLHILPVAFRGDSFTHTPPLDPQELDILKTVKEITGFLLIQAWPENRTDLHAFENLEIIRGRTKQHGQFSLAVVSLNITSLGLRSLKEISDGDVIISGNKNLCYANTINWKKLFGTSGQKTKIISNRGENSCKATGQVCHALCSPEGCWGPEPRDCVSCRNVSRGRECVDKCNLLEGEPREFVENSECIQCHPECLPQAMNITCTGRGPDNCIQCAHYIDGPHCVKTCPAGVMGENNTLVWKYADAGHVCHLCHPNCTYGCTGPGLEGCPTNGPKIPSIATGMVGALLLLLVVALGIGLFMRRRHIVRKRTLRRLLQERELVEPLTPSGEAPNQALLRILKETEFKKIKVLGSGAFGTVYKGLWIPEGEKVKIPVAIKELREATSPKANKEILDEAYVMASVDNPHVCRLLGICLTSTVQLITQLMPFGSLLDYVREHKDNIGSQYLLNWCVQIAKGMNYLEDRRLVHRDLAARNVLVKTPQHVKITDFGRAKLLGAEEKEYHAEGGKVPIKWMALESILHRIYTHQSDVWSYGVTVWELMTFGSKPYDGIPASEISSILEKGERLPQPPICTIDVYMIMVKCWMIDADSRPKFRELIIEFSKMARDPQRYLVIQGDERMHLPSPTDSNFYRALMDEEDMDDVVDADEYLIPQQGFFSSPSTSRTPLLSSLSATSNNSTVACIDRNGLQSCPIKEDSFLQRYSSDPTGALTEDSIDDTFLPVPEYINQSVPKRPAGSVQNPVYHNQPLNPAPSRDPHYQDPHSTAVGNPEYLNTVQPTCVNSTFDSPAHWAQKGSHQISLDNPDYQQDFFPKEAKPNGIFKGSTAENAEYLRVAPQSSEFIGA
Chain of EGFR wildtype (WT) (P00533 25-1210): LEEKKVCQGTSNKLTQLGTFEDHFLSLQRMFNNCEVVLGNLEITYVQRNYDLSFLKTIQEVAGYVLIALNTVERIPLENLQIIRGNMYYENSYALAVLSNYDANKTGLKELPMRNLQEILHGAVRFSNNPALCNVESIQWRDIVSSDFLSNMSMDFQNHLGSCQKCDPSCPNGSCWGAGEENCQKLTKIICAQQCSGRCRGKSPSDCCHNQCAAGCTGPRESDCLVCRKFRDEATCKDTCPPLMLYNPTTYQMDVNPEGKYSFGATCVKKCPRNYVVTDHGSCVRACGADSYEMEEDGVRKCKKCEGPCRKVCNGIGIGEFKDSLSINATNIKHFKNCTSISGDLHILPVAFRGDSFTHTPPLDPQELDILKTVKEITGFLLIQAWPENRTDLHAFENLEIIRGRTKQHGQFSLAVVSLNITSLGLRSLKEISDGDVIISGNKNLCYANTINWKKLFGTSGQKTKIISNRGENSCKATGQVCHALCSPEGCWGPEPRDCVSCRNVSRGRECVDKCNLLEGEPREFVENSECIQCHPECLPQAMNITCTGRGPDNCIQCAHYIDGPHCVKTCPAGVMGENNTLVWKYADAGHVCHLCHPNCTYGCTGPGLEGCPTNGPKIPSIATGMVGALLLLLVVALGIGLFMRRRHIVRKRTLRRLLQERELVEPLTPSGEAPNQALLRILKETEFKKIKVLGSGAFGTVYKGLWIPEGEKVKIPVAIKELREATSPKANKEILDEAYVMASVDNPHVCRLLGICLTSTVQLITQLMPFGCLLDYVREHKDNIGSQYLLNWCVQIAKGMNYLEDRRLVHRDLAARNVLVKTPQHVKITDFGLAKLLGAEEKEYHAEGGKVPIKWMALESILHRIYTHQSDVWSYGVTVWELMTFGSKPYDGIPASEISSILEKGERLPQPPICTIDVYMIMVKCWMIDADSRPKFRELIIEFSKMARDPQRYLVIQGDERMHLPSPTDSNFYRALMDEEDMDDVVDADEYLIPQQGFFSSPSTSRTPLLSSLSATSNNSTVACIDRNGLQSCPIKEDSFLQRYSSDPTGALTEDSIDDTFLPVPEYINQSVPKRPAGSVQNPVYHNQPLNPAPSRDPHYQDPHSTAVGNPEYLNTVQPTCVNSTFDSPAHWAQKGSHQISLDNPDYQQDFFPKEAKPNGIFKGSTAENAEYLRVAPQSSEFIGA
Chain of EGFR Del19/T790M/C797S (P00533 with tags, fused parts or gaps DEL746-750/T790M/C797S): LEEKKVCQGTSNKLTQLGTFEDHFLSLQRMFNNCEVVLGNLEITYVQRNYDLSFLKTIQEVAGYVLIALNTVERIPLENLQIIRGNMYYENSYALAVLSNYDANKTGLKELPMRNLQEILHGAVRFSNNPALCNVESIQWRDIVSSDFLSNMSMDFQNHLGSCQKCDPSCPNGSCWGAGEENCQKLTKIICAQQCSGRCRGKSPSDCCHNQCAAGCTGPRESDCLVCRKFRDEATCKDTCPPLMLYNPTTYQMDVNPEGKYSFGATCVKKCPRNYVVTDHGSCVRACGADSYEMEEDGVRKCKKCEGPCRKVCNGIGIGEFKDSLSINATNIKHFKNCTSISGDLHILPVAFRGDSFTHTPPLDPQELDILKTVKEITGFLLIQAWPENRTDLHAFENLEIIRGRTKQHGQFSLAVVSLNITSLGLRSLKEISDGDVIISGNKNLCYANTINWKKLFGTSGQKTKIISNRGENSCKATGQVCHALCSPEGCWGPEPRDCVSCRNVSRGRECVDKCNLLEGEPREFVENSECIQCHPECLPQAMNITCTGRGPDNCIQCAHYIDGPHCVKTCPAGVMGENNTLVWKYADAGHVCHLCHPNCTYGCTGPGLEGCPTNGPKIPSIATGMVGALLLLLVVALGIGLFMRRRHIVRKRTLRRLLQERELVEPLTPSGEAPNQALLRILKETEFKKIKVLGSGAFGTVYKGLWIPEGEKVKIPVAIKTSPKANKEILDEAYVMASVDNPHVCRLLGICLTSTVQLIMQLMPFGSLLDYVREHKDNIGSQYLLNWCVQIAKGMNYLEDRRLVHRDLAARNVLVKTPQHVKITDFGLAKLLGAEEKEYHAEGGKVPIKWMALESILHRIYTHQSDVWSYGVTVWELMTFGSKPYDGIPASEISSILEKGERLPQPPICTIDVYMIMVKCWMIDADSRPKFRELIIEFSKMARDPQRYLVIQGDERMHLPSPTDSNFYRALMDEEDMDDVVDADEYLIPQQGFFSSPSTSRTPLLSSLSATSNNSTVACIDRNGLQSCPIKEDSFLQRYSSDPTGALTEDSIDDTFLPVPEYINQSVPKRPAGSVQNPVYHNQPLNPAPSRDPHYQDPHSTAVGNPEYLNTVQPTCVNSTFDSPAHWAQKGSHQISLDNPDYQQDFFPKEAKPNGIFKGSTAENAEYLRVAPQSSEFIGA
Chain of EGFR L858R/T790M/C797S (P00533 25-1210 T790M/C797S/L858R): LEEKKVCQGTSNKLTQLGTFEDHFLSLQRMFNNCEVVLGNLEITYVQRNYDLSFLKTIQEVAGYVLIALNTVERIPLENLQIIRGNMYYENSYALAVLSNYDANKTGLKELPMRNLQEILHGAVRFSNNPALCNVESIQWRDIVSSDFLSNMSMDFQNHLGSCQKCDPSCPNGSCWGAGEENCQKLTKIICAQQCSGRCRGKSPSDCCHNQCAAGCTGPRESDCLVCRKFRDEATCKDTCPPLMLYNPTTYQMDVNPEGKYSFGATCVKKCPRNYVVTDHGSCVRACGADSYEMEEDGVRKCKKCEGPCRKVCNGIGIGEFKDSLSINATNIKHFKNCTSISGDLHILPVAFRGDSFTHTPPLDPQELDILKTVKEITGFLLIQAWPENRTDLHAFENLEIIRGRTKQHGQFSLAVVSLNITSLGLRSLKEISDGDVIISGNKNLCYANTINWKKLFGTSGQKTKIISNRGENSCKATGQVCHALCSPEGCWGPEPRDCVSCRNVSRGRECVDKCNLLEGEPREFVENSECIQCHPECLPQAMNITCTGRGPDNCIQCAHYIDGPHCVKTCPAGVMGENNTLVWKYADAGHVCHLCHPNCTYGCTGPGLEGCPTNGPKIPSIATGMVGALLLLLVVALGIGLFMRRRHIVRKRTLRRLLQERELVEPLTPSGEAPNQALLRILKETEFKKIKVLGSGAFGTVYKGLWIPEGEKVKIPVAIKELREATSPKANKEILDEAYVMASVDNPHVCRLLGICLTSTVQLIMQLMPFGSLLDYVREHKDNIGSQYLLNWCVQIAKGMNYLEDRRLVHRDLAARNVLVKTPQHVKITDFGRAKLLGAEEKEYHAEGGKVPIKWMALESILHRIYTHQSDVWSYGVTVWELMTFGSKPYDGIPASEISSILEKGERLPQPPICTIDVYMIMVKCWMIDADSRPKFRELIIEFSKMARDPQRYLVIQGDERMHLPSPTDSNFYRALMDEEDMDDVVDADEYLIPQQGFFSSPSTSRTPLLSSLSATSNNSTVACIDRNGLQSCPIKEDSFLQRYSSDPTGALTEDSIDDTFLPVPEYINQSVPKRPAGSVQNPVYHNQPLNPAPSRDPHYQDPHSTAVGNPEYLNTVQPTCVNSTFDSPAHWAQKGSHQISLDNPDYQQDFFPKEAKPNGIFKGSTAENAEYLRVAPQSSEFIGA

For the compound `CN(C)C[C@H]1CC[C@@H](Nc2cc(Nc3ccnc(-c4cnn(S(=O)(=O)C5CC5)c4)n3)ncc2C#Cc2cnn(CC(F)F)c2)CC1` [Example 311, N^2-(2-(1-(Cyclopropylsulfonyl)-1H-pyrazol-4-yl)pyrimidin-4-yl)-5-((1-(2,2-difluoroethyl)-1H-pyrazol-4-yl)ethynyl)-N^4-((1s,4s)-4-((dimethylamino)methyl)cyclohexyl)pyridine-2,4-diamine], the IC50 in experiment [1] (setting [6]) was found to be 0.7 nM; in experiment [2] (setting [7]) it was 0.5 nM; in experiment [3] (setting [8]) it was 1.6 nM; in experiment [3] (setting [9]), 1.8 nM; in experiment [4] (setting [10]), 0.7 nM; in experiment [4] (setting [11]), 26 nM. Besides, the IC50 in experiment [5] (setting [12]) amounted to 17.5 nM; in experiment [5] (IC50 WT (nM), 100 μM ATP), 8550 nM.

In the case of `O=S(=O)(C1CC1)n1cc(-c2nccc(Nc3cc(N[C@H]4CC[C@@H](O)CC4)c(C#Cc4ccc(CN5CCOCC5)cc4)cn3)n2)cn1` [Example 157, (1s,4s)-4-((2-((2-(1-(Cyclopropylsulfonyl)-1H-pyrazol-4-yl)pyrimidin-4-yl)amino)-5-((4-(morpholinomethyl)phenyl)ethynyl)pyridin-4-yl)amino)cyclohexan-1-ol], the IC50 was 1.7 nM in experiment [1] (setting [13]); 4.6 nM in experiment [1] (setting [6]); 3.3 nM in experiment [2] (setting [14]); 3.6 nM in experiment [2] (setting [7]); 3.7 nM in experiment [3] (setting [8]); 10.6 nM in experiment [3] (setting [9]). Besides, the IC50 in experiment [4] (setting [10]) is 3.3 nM; in experiment [4] (setting [11]) it was 40.8 nM; in experiment [5] (setting [12]), 127 nM; in experiment [5] (IC50 WT (nM), 100 μM ATP), over 10000 nM.

`Cn1cc(C#Cc2cnc(Nc3ccnc(-c4cnn(S(=O)(=O)C5CC5)c4)n3)cc2N[C@H]2CC[C@@H](O)CC2)c(C(F)(F)F)n1` [Example 92, (1s,4s)-4-((2-((2-(1-(Cyclopropylsulfonyl)-1H-pyrazol-4-yl)pyrimidin-4-yl)amino)-5-((1-methyl-3-(trifluoromethyl)-1H-pyrazol-4-yl)ethynyl)pyridin-4-yl)amino)cyclohexan-1-ol]: the IC50 was 11.3 nM in experiment [1] (setting [6]); 5.5 nM in experiment [2] (setting [7]); 67.5 nM in experiment [3] (setting [9]); 80.7 nM in experiment [4] (setting [11]); over 10000 nM in experiment [5] (IC50 WT (nM), 100 μM ATP).

On to `CC1(CO)CCN(c2cc(Nc3ccnc(-c4cnn(S(=O)(=O)C5CC5)c4)n3)ncc2C#Cc2ccc(CN3CCOCC3)cn2)CC1` [Example 185, (1-(2-((2-(1-(Cyclopropylsulfonyl)-1H-pyrazol-4-yl)pyrimidin-4-yl)amino)-5-((5-(morpholinomethyl)pyridin-2-yl)ethynyl)pyridin-4-yl)-4-methylpiperidin-4-yl)methanol], for which the IC50 in experiment [1] (setting [13]) turned out to be 0.2 nM; in experiment [1] (setting [6]), 1.1 nM; in experiment [2] (setting [14]), 0.4 nM; in experiment [2] (setting [7]), 1.2 nM; in experiment [3] (setting [8]), 0.5 nM; in experiment [3] (setting [9]), 0.8 nM. Also, the IC50 was 0.9 nM in experiment [4] (setting [10]); 6.8 nM in experiment [4] (setting [11]); 1.7 nM in experiment [5] (setting [12]); over 10000 nM in experiment [5] (IC50 WT (nM), 100 μM ATP).

As to `O=S(=O)(C1CC1)n1cc(-c2nccc(Nc3cc(NC4CCC(O)CC4)c(C#CC4(F)CCOC4)cn3)n2)cn1` (stereo not drawn) [Example 436, (1s,4s)-4-((2-((2-(1-(Cyclopropylsulfonyl)-1H-pyrazol-4-yl)pyrimidin-4-yl)amino)-5-((3-fluorotetrahydrofuran-3-yl)ethynyl)pyridin-4-yl)amino)cyclohexan-1-ol], the IC50 in experiment [1] (setting [6]) is 0.3 nM; in experiment [1] (Km ATP, read-out: IC50 L858R/T790M/C797S (nM), Km ATP), 0.1 nM; in experiment [2] (setting [7]), 0.2 nM; in experiment [2] (Km ATP, read-out: IC50 Del19/T790M/C797S (nM), Km ATP), 0.1 nM; in experiment [3] (setting [9]), 3.1 nM; in experiment [3] (setting [15]) it was 1.7 nM. In addition, the IC50 in experiment [4] (setting [11]) was 111 nM; in experiment [4] (setting [16]) it was 2.5 nM; in experiment [5] (IC50 WT (nM), 100 μM ATP), over 10000 nM; in experiment [5] (setting [17]), 12.5 nM.

For the compound `CN(C)C[C@H]1CC[C@@H](Nc2cc(Nc3ccnc(-c4cnn(S(=O)(=O)C5CC5)c4)n3)ncc2C#Cc2cnn(C(F)(F)F)c2)CC1` [Example 314, N^2-(2-(1-(Cyclopropylsulfonyl)-1H-pyrazol-4-yl)pyrimidin-4-yl)-N^4-((1s,4s)-4-((dimethylamino)methyl)cyclohexyl)-5-((1-(trifluoromethyl)-1H-pyrazol-4-yl)ethynyl)pyridine-2,4-diamine], the IC50 in experiment [1] (setting [13]) was 0.2 nM; in experiment [1] (setting [6]), 0.2 nM; in experiment [2] (setting [14]), 0.7 nM; in experiment [2] (setting [7]) it was 0.9 nM; in experiment [3] (setting [8]), 5.4 nM; in experiment [3] (setting [9]) it was 9.9 nM. Further, the IC50 in experiment [4] (setting [10]) was 3.4 nM; in experiment [4] (setting [11]) it was 78.4 nM; in experiment [5] (setting [12]) it was 52.6 nM; in experiment [5] (IC50 WT (nM), 100 μM ATP), over 10000 nM.

As for `CC(C)(O)C1CN(c2cc(Nc3ccnc(-c4cnn(S(=O)(=O)C5CC5)c4)n3)ncc2C#Cc2cnn(CCF)c2)C1` [Example 36, 2-(1-(2-((2-(1-(Cyclopropylsulfonyl)-1H-pyrazol-4-yl)pyrimidin-4-yl)amino)-5-((1-(2-fluoroethyl)-1H-pyrazol-4-yl)ethynyl)pyridin-4-yl)azetidin-3-yl)propan-2-ol], the IC50 in experiment [1] (setting [6]) is 3 nM; in experiment [2] (setting [7]), 2.1 nM; in experiment [3] (setting [9]) it was 25.5 nM; in experiment [4] (setting [11]), 100 nM; in experiment [5] (IC50 WT (nM), 100 μM ATP) it was over 10000 nM.

For `CC1(C#Cc2cnc(Nc3ccnc(-c4cnn(S(=O)(=O)C5CC5)c4)n3)cc2N[C@H]2CC[C@@H](O)CC2)COC1` [Example 350, (1s,4s)-4-((2-((2-(1-(Cyclopropylsulfonyl)-1H-pyrazol-4-yl)pyrimidin-4-yl)amino)-5-((3-methyloxetan-3-yl)ethynyl)pyridin-4-yl)amino)cyclohexan-1-ol], the IC50 in experiment [1] (setting [6]) was 13.9 nM; in experiment [2] (setting [7]), 2.8 nM; in experiment [3] (setting [9]) it was 81.4 nM; in experiment [4] (setting [11]) it was 954 nM; in experiment [5] (IC50 WT (nM), 100 μM ATP) it was over 10000 nM.

Turning to `CC1(CO)CCN(c2cc(Nc3ccnc(-c4cnn(S(=O)(=O)C5CC5)c4)n3)ncc2C#Cc2cnn(CC(F)F)c2)CC1` [Example 49, (1-(2-((2-(1-(Cyclopropylsulfonyl)-1H-pyrazol-4-yl)pyrimidin-4-yl)amino)-5-((1-(2,2-difluoroethyl)-1H-pyrazol-4-yl)ethynyl)pyridin-4-yl)-4-methylpiperidin-4-yl)methanol], the IC50 in experiment [1] (setting [6]) amounted to 2.9 nM; in experiment [1] (Km ATP, read-out: IC50 L858R/T790M/C797S (nM) Km ATP), 1.1 nM; in experiment [2] (setting [7]) it was 1.8 nM; in experiment [2] (Km ATP, read-out: IC50 Del19/T790M/C797S (nM) Km ATP), 1.8 nM; in experiment [3] (setting [9]), 0.9 nM; in experiment [3] (Km ATP, read-out: IC50 Del19/C797S (nM) Km ATP), 2.1 nM. Further, the IC50 in experiment [4] (setting [11]) amounted to 7.2 nM; in experiment [4] (Km ATP, read-out: IC50 L858R/C797S (nM) Km ATP), 2.8 nM; in experiment [5] (IC50 WT (nM), 100 μM ATP) it was 1260 nM; in experiment [5] (Km ATP, read-out: IC50 WT (nM) Km ATP), 14.3 nM.

On to `CC1(C#Cc2cnc(Nc3ccnc(-c4cnn(S(=O)(=O)C5CC5)c4)n3)cc2N[C@H]2CC[C@@H](CO)CC2)CC1` [Example 402, ((1s,4s)-4-((2-((2-(1-(Cyclopropylsulfonyl)-1H-pyrazol-4-yl)pyrimidin-4-yl)amino)-5-((1-methylcyclopropyl)ethynyl)pyridin-4-yl)amino)cyclohexyl)methanol], for which the IC50 was found to be 3.9 nM in experiment [1] (setting [6]); 2.6 nM in experiment [2] (setting [7]); 8.4 nM in experiment [3] (setting [9]); 7.9 nM in experiment [3] (setting [15]); 104 nM in experiment [4] (setting [11]); 3.9 nM in experiment [4] (setting [16]). The IC50 is over 10000 nM in experiment [5] (IC50 WT (nM), 100 μM ATP) and 62.7 nM in experiment [5] (setting [17]).

The values are drawn from US11981658B2, “Substituted aminopyridine compounds as EGFR inhibitors” (YUHAN CORPORATION, priority 2021, dated 2024).
